Results taken from patent US10568949B2, “Method of eliciting an anti-tumor immune response with controlled delivery of TLR agonists in porous polymerlc devices” (President and Fellows of Harvard College, priority 2008, dated 2020).

Test system: B16-F10 cells
Experiment: Example 7: vaccination of mice lacking CD8(+) DCs
Type: in vivo
Conditions: vaccinated Batf3−/− mice
Protocol: C57BL/6 mice and Batf3−/− knockout mice (6-8-week-old female; Jackson Laboratories) were used in the studies described in Example 7.
Since PLG vaccines incorporating TLR agonists were capable of generating CD8(+) DC populations in situ, which correlated to potent anti-tumor CTL responses and survival (FIGS. 17A-D and 19A-F), studies were carried out to examine whether these cells were required to confer anti-tumor immunity in vivo. […] Wild-type and Batf3−/− mice were vaccinated with CpG-ODN loaded PLG vaccines and challenged with B16-F10 cells 14 days later. Vaccination of wildtype mice promoted complete protection against tumor growth and long-term survival (100% survival), as expected, but vaccinated Batf3−/− were not protected and tumor growth rates were similar to untreated, wild-type animals (FIG. 20A).

CpG-ODN 1826
decrease in TRP2 specific cytotoxic T cells at vaccine site vs wild-type: 3 fold
protection against tumor growth: not protected
